Our source for the GI50 and TGI values is PubChem BioAssay (NCI).

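Briefly, cells in 96-well plates were exposed to five compound concentrations for 48 h, and endpoints were estimated by linear interpolation. GI50 = concentration required for 50% inhibition of growth. TGI denotes the concentration required for complete inhibition of growth.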

Test systems include HOP-92 NSCLC; CCRF-CEM leukemia; SF-539 CNS; UO-31 renal; SK-MEL-5 melanoma; SW-620 colon; RPMI-8226 leukemia; UACC-257 melanoma; SK-MEL-28 melanoma; SF-268 CNS.
What all share (test): NCI-60 cell line screen, 48 h

As for `COc1cc2nc(-c3cccc4cccnc34)nc(NC3CCN(Cc4ccccc4)CC3)c2cc1OC`, the GI50 with HOP-92 NSCLC is 1.59 µM; with CCRF-CEM leukemia it was 0.576 µM; in the experiment with SF-539 CNS, 1.4 µM; in the experiment with UO-31 renal, 1.43 µM; in the experiment with SK-MEL-5 melanoma, 1.66 µM; in the experiment on SW-620 colon it was 0.509 µM. For the same molecule, the GI50 in the experiment with RPMI-8226 leukemia was 1.6 µM; with UACC-257 melanoma, 2.07 µM; in the experiment with SK-MEL-28 melanoma, 1.82 µM; in the experiment on SF-268 CNS, 1.14 µM. Besides, the TGI in the experiment on HOP-92 NSCLC came to 3.36 µM; in the experiment with CCRF-CEM leukemia, 2.83 µM; in the experiment with SF-539 CNS, 2.92 µM; in the experiment on UO-31 renal, 2.88 µM; in the experiment on SK-MEL-5 melanoma, 3.18 µM; with SW-620 colon it was 2.01 µM. Moreover, the TGI is 4.54 µM with RPMI-8226 leukemia, 4.1 µM with UACC-257 melanoma, 3.6 µM in the experiment on SK-MEL-28 melanoma and 2.98 µM in the experiment with SF-268 CNS.

With `Oc1c(O)c(Cl)c(Cl)c(Cl)c1Cl`, the GI50 with HOP-92 NSCLC was 2.11 µM; in the experiment with CCRF-CEM leukemia, 2.73 µM; in the experiment on SF-539 CNS, 3.72 µM; in the experiment with UO-31 renal, 2.74 µM; in the experiment on SK-MEL-5 melanoma, 3.37 µM; in the experiment on SW-620 colon it was 3.17 µM. The GI50 in the experiment on RPMI-8226 leukemia is 2.23 µM; in the experiment with UACC-257 melanoma, 2.92 µM; in the experiment with SK-MEL-28 melanoma, 4.99 µM; in the experiment on SF-268 CNS it was 3.09 µM. Also, the TGI in the experiment on HOP-92 NSCLC turned out to be 7.37 µM; in the experiment with CCRF-CEM leukemia it was 27.7 µM; with SF-539 CNS, 14.7 µM; in the experiment on UO-31 renal it was 13.1 µM; in the experiment on SK-MEL-5 melanoma, 13.4 µM; in the experiment on SW-620 colon it was 30.3 µM. In addition, the TGI in the experiment with RPMI-8226 leukemia is 7.38 µM; with UACC-257 melanoma, 9.6 µM; with SK-MEL-28 melanoma it was 37.2 µM; with SF-268 CNS, greater than 100 µM.

In the case of `C=C(CN1c2ccccc2Sc2ccccc21)c1ccc(C(=O)Nc2ccccc2N)cc1`, the GI50 is greater than 47.9 µM in the experiment on HOP-92 NSCLC; 0.101 µM in the experiment with CCRF-CEM leukemia; greater than 26 µM in the experiment with SF-539 CNS; 2.03 µM in the experiment on UO-31 renal; 44.7 µM with SK-MEL-5 melanoma; greater than 92.3 µM in the experiment with SW-620 colon. For the same molecule, the GI50 was 0.597 µM with RPMI-8226 leukemia, 67.6 µM with UACC-257 melanoma, 43.5 µM in the experiment on SK-MEL-28 melanoma and 25.7 µM with SF-268 CNS. Moreover, the TGI with HOP-92 NSCLC was greater than 100 µM; with SF-539 CNS, greater than 100 µM; in the experiment on UO-31 renal, greater than 100 µM; with SK-MEL-5 melanoma, greater than 100 µM; with SW-620 colon, greater than 100 µM; in the experiment on RPMI-8226 leukemia, greater than 25.4 µM. The TGI in the experiment on UACC-257 melanoma, in the experiment on SK-MEL-28 melanoma and in the experiment on SF-268 CNS was greater than 100 µM throughout.

In the case of `CCc1nn2ncccc2c1-c1ccnc(NC2CC2)n1`, the GI50 is greater than 6.73 µM in the experiment on HOP-92 NSCLC; greater than 25 µM in the experiment with CCRF-CEM leukemia; greater than 25 µM with SF-539 CNS; greater than 24 µM in the experiment on UO-31 renal; greater than 25 µM in the experiment with SK-MEL-5 melanoma; greater than 25 µM in the experiment on SW-620 colon. In addition, the GI50 in the experiment with RPMI-8226 leukemia, in the experiment with UACC-257 melanoma, with SK-MEL-28 melanoma and in the experiment with SF-268 CNS was greater than 25 µM throughout. In addition, the TGI in the experiment with HOP-92 NSCLC, in the experiment on CCRF-CEM leukemia, in the experiment with SF-539 CNS, in the experiment with UO-31 renal, with SK-MEL-5 melanoma and in the experiment with SW-620 colon was greater than 25 µM in each case. Moreover, the TGI in the experiment with RPMI-8226 leukemia, in the experiment with UACC-257 melanoma, in the experiment with SK-MEL-28 melanoma and in the experiment on SF-268 CNS was greater than 25 µM each time.

With `CC[C@@H](O)C[C@H]1CCC[C@@]2(C[C@@H]3OC(=O)/C=C/[C@@](C)(O)[C@@H](O)[C@H](C)[C@@H](O)[C@H](OC4CCC(N(C)C)C(C)O4)[C@@H](O)[C@](C)(O)CCCCC/C=C/[C@@H]4CC(C)(C)O[C@@]4(O)C[C@H](O2)[C@H]3C)O1` (some centres undefined), the TGI in the experiment with HOP-92 NSCLC is 37.2 µM; with CCRF-CEM leukemia it was greater than 100 µM; in the experiment on SF-539 CNS, 23.3 µM; in the experiment on UO-31 renal, 18.1 µM; with SK-MEL-5 melanoma, 2.04 µM; with SW-620 colon, 53.6 µM. The TGI stood at 25 µM in the experiment on RPMI-8226 leukemia, 4.82 µM in the experiment with UACC-257 melanoma, 36.8 µM with SK-MEL-28 melanoma and 35.2 µM in the experiment with SF-268 CNS.

With `COc1cc(C2c3cc4c(cc3[C@@H](N(C)c3ccc(N(C)C)cc3)C3COC(=O)C23)OCO4)cc(OC)c1O` (some centres undefined), the TGI in the experiment on HOP-92 NSCLC turned out to be 36.8 µM; with CCRF-CEM leukemia, 35.5 µM; in the experiment with SF-539 CNS, 0.638 µM; in the experiment on UO-31 renal, 19.4 µM; in the experiment with SK-MEL-5 melanoma, 13.7 µM; in the experiment on SW-620 colon, 21.8 µM. In addition, the TGI in the experiment on RPMI-8226 leukemia is greater than 100 µM; in the experiment on UACC-257 melanoma it was 18 µM; in the experiment with SK-MEL-28 melanoma it was 27.3 µM; in the experiment on SF-268 CNS, 6.85 µM.

Take `Nc1ccc(-c2ccc3ncc4ccc(=O)n(-c5cccc(C(F)(F)F)c5)c4c3c2)cn1`: the GI50 with HOP-92 NSCLC is less than 0.01 µM; with CCRF-CEM leukemia it was less than 0.01 µM; in the experiment with SF-539 CNS, less than 0.01 µM; with UO-31 renal it was less than 0.01 µM; in the experiment with SK-MEL-5 melanoma, less than 0.01 µM; with SW-620 colon, less than 0.0125 µM. Also, the GI50 is less than 0.01 µM in the experiment on RPMI-8226 leukemia, less than 0.01 µM in the experiment on UACC-257 melanoma, less than 0.01 µM in the experiment with SK-MEL-28 melanoma and less than 0.0104 µM in the experiment on SF-268 CNS. Besides, the TGI was less than 0.0226 µM in the experiment with HOP-92 NSCLC; 1.93 µM with CCRF-CEM leukemia; 0.039 µM in the experiment with SF-539 CNS; 2.39 µM with UO-31 renal; 0.0767 µM in the experiment on SK-MEL-5 melanoma; 13.3 µM in the experiment with SW-620 colon. For the same molecule, the TGI in the experiment on RPMI-8226 leukemia was 0.241 µM; in the experiment with UACC-257 melanoma it was 0.0708 µM; in the experiment on SK-MEL-28 melanoma, 11.5 µM; in the experiment on SF-268 CNS, 4.61 µM.

For `COc1ccc2[nH]c(C(=O)OCc3ccc4cccc(O)c4n3)cc2c1`, the GI50 was 0.209 µM in the experiment with HOP-92 NSCLC; 0.148 µM with CCRF-CEM leukemia; 1.27 µM in the experiment with SF-539 CNS; 0.551 µM with UO-31 renal; 1.76 µM in the experiment on SK-MEL-5 melanoma; 1.2 µM in the experiment on SW-620 colon. Further, the GI50 in the experiment on RPMI-8226 leukemia is 0.288 µM; with UACC-257 melanoma, 2.02 µM; in the experiment on SK-MEL-28 melanoma, 1.61 µM; in the experiment on SF-268 CNS, 1.65 µM. Further, the TGI amounted to 1.42 µM in the experiment with HOP-92 NSCLC; 1.11 µM in the experiment on CCRF-CEM leukemia; 2.53 µM in the experiment on SF-539 CNS; 1.99 µM with UO-31 renal; 3.18 µM in the experiment on SK-MEL-5 melanoma; 3.15 µM in the experiment on SW-620 colon. The TGI in the experiment on RPMI-8226 leukemia is 0.874 µM; in the experiment on UACC-257 melanoma, 5.68 µM; in the experiment on SK-MEL-28 melanoma it was 3 µM; in the experiment with SF-268 CNS it was 3.13 µM.

In the case of `C1CC2=C(C1)C1=S(S2)SC2=C1CCC2`, the TGI with HOP-92 NSCLC, with CCRF-CEM leukemia, with SF-539 CNS, in the experiment on UO-31 renal, with SK-MEL-5 melanoma and in the experiment on SW-620 colon was greater than 100 µM each time. The TGI in the experiment with RPMI-8226 leukemia, in the experiment on UACC-257 melanoma, in the experiment with SK-MEL-28 melanoma and with SF-268 CNS was greater than 100 µM throughout.

On to `OC(COc1ccccc1)CN1CCCCC1` (centres undefined), for which the TGI in the experiment on HOP-92 NSCLC, in the experiment with CCRF-CEM leukemia, in the experiment with SF-539 CNS, in the experiment with UO-31 renal, with SK-MEL-5 melanoma and in the experiment on SW-620 colon was greater than 100 µM each time. In addition, the TGI in the experiment with RPMI-8226 leukemia, in the experiment with UACC-257 melanoma, in the experiment with SK-MEL-28 melanoma and in the experiment on SF-268 CNS was greater than 100 µM each time.

Regarding `COc1ccc2nc3cccc([N+](=O)[O-])c3c(NCCNCCN(C)C)c2c1`, the GI50 in the experiment with HOP-92 NSCLC is 0.0588 µM; in the experiment on CCRF-CEM leukemia it was 0.0384 µM; in the experiment with SF-539 CNS, 0.199 µM; with UO-31 renal it was 0.119 µM; in the experiment with SK-MEL-5 melanoma it was 0.0325 µM; with SW-620 colon, 0.0486 µM. The GI50 in the experiment with RPMI-8226 leukemia is 0.0208 µM; in the experiment with UACC-257 melanoma, 0.24 µM; in the experiment on SK-MEL-28 melanoma, 0.62 µM; in the experiment with SF-268 CNS, 0.161 µM. For the same molecule, the TGI came to 0.204 µM in the experiment on HOP-92 NSCLC; 0.29 µM in the experiment with CCRF-CEM leukemia; 0.429 µM in the experiment on SF-539 CNS; 0.377 µM with UO-31 renal; 0.13 µM with SK-MEL-5 melanoma; 2.27 µM in the experiment with SW-620 colon. Further, the TGI in the experiment on RPMI-8226 leukemia came out at 0.106 µM; with UACC-257 melanoma, 0.604 µM; in the experiment on SK-MEL-28 melanoma it was 3.09 µM; with SF-268 CNS, 0.715 µM.

With `C/C(O)=C(\N=O)C(=O)NCc1ccccc1`, the TGI with HOP-92 NSCLC was greater than 100 µM; with CCRF-CEM leukemia, greater than 100 µM; in the experiment with SF-539 CNS, greater than 100 µM; in the experiment on UO-31 renal it was greater than 100 µM; with SK-MEL-5 melanoma, greater than 100 µM; in the experiment with SW-620 colon, 31.4 µM. The TGI with RPMI-8226 leukemia, in the experiment with UACC-257 melanoma, in the experiment on SK-MEL-28 melanoma and in the experiment with SF-268 CNS was greater than 100 µM throughout.

Turning to `Nc1nc2c(ccc3ccccc32)s1`, the GI50 in the experiment on HOP-92 NSCLC was 19.3 µM; in the experiment on CCRF-CEM leukemia, 48.1 µM; with SF-539 CNS, greater than 100 µM; in the experiment with UO-31 renal, 74.3 µM; in the experiment with SK-MEL-5 melanoma, 72.7 µM; in the experiment with SW-620 colon, greater than 100 µM. Further, the GI50 was 43.8 µM with RPMI-8226 leukemia, greater than 100 µM with UACC-257 melanoma, greater than 100 µM in the experiment on SK-MEL-28 melanoma and 33.2 µM in the experiment on SF-268 CNS. Besides, the TGI is 85.2 µM in the experiment on HOP-92 NSCLC; greater than 100 µM with CCRF-CEM leukemia; greater than 100 µM in the experiment with SF-539 CNS; greater than 100 µM in the experiment on UO-31 renal; greater than 100 µM in the experiment on SK-MEL-5 melanoma; greater than 100 µM in the experiment with SW-620 colon. Besides, the TGI with RPMI-8226 leukemia, in the experiment on UACC-257 melanoma, in the experiment on SK-MEL-28 melanoma and with SF-268 CNS was greater than 100 µM throughout.
